This is an account of results in patent US3991199A, “Pyridoindoles” (Endo Laboratories, Inc., priority 1974, dated 1976).

The term ED50 denotes the midpoint of the dose-response relation.

Where a name gives a salt, the structure may show the parent alone. Read-outs that look alike come from different tables or passages of the source. Where only a bound is given, the exact number is not on record here.

One assay deals with blood pressure. Nature of the assay: Hypotensive (Hypo): blood pressure in conscious rats. The note with it: Rattus norvegicus, oral dose, read-out: Hypo rat MED. It is filed as in vivo.
Assay [1] deals with phenyl-p-benzoquinone writhing. Put plainly: Phenylquinone Writhing (PQW), analgesic. It is filed as in vivo. The note with it: po, read-out: PQW mouse ED50.
The test system of a further assay is locomotor activity. Nature of the assay: Decreased Locomotor Activity (LMA), sedative. It is filed as in vivo, mouse. As to conditions: for minimal effective dose: po, read-out: LMA mouse MED.
The test system of assay [2] is pressor response to epinephrine and/or nor-epinephrine. Nature of the assay: Adrenergic Blockage (AB). It is filed as in vivo. The note with it: Canis lupus familiaris; intravenous, dog; read-out: AB dog MED.
In assay [3] the test system is conflict (approach-avoidance). Put plainly: Rat Conflict (Approach-Avoidance) Test (Conf), minor tranquilizer. It is filed as in vivo. As to conditions: for minor tranquilizing (anxiolytic) activity: in words.
Assay [4] relates to conditioned avoidance response. Put plainly: Rat Conditioned Avoidance Response (CAR), major tranquilizer. It is filed as in vivo. As to conditions: for ED50: po, read-out: CAR rat ED50.
The conditions of assay [5]: U.S. Pat. No. 3,657,254; cited from earlier work.
For assay [6], the system named is conflict (approach-avoidance). The note with it: in words, background statement; cited from earlier work.

For `c1ccc(N2c3ccccc3[C@@H]3CN(CC4CCCC4)CC[C@H]32)cc1` (racemic) [compound 2 of Table II, (±)-trans-2-(cyclopentylmethyl)-2,3,4,4a,5,9b-hexahydro-5-phenyl-1H-pyrido[4,3-b]indole], the minimal effective dose with blood pressure was determined as 10 mg/kg; in the assay on locomotor activity (mouse) it was 10 mg/kg; in assay [2], 0.03 mg/kg. Further, the ED50 in assay [1] (mouse) was found to be 1 mg/kg; in assay [4] (rat), 5 mg/kg. Further, the “Conf rat MED” value in assay [3] (po, rat) is given as “I”. The “major tranquilizing (antipsychotic) activity” value (shortened to “major tranquilizing”) in assay [4] (in words) is “major tranquilizer (antipsychotic) activity”.

For `Cl.c1ccc(N2c3ccccc3[C@@H]3CN(CC45CC6CC(CC(C6)C4)C5)CC[C@H]32)cc1` (racemic) [compound 4 of Table II, (±)-trans-2-(1-adamantylmethyl)-2,3,4,4a,5,9b-hexahydro-5-phenyl-1H-pyrido[4,3-b]indole, hydrochloride], the ED50 in assay [1] (mouse) is 19 mg/kg; in assay [4] (rat), 50 mg/kg. Besides, the minimal effective dose in the assay with locomotor activity (mouse) was 30 mg/kg; in assay [2], greater than 1 mg/kg; in assay [3] (po, rat, read-out: Conf rat MED), 10 mg/kg; in assay [3] (po, rat, comparison table, read-out: Rat Conf.), 10 mg/kg. Also, the “minor tranquilizing (anxiolytic) activity” value in assay [3] is “exhibit minor tranquilizing (anxiolytic) activity at doses which are not sedating”. Moreover, the “major tranquilizing” value in assay [4] (in words) was “exhibit major tranquilizing (antipsychotic) activity”.

`Cl.c1ccc(N2c3ccccc3[C@@H]3CN(CC4C5CC6CC(C5)CC4C6)CC[C@H]32)cc1` (mixture of isomers) [compound 14 of Table II, (±)-trans-2-(2-adamantylmethyl)-2,3,4,4a,5,9b-hexahydro-5-phenyl-1H-pyrido[4,3-b]indole, hydrochloride]: in assay [1] (mouse), the ED50 was 27 mg/kg. The minimal effective dose in the assay with locomotor activity (mouse) was found to be 2 mg/kg. The “minor tranquilizing (anxiolytic) activity” value in assay [3] is “exhibit minor tranquilizing (anxiolytic) activity at doses which are not sedating”. For the same compound, in assay [3] (po, rat, ** active at this dose, MED not yet determined), the “Conf rat, active dose” value was found to be 10 mg/kg. Besides, the “major tranquilizing” value in assay [4] (in words) is recorded as “exhibit major tranquilizing (antipsychotic) activity”.

For `c1ccc(N2c3ccccc3[C@@H]3CN(CC4CCCCC4)CC[C@H]32)cc1` (relative stereo), the results for the minimal effective dose (in the assay on blood pressure; with locomotor activity (mouse); in assay [2]) were 10 mg/kg, 3 mg/kg and 0.03 mg/kg, respectively. In addition, the ED50 in assay [1] (mouse) was 4 mg/kg; in assay [4] (rat), 20 mg/kg. The “Conf rat MED” value in assay [3] (po, rat) is “I”.

Consider `CC12CCC(CN3CC[C@@H]4[C@@H](C3)c3ccccc3N4c3ccccc3)(CC1)CC2` (relative stereo), for which, in assay [1] (mouse), the ED50 was 80 mg/kg. Moreover, the minimal effective dose in the assay on locomotor activity (mouse) was determined as 30 mg/kg.

In the case of `CC(Cl)=CCN1CC[C@@H]2[C@@H](C1)c1ccccc1N2c1ccccc1` (relative stereo), the ED50 in assay [1] (mouse) came to 2 mg/kg. For the same compound, in the assay with locomotor activity (mouse), the minimal effective dose was 1 mg/kg.

`c1ccc(CCN2CC[C@@H]3[C@@H](C2)c2ccccc2N3c2ccccc2)cc1` (relative stereo): in assay [1] (mouse), the ED50 is 2 mg/kg. The minimal effective dose with locomotor activity (mouse) amounted to 10 mg/kg.

Regarding `CC12C=CC(CN3CC[C@@H]4[C@@H](C3)c3ccccc3N4c3ccccc3)(CC1)CC2` (relative stereo), the ED50 in assay [1] (mouse) was determined as 14 mg/kg. The minimal effective dose in the assay with locomotor activity (mouse) was found to be 30 mg/kg.

In the case of `C1=CCC(CN2CC[C@@H]3[C@@H](C2)c2ccccc2N3c2ccccc2)CC1` (relative stereo), in assay [1] (mouse), the ED50 turned out to be 2 mg/kg. Also, in the assay on locomotor activity (mouse), the minimal effective dose was 3 mg/kg.

Take `Cc1ccc2c(c1)[C@@H]1CN(C)CC[C@@H]1N2` (relative stereo) [2,8-dimethyl-2,3,4,4a,5,9b-hexahydro-1H-pyrido[4,3-b]]indole]: in assay [5], the mechanism of action entry is recorded as “adrenergic blockade”; the psychotropic effects entry was “neuroleptic, antidepressive, and energizing effects”.

As to `c1ccc(N2c3ccccc3[C@@H]3CN(C[C@H]4[C@@H]5CCCC[C@@H]54)CC[C@H]32)cc1` (relative stereo) [compound 9 of Table II, (±)-trans-2,3,4,4a,5,9b-hexahydro-2-(exo-7-norcarylmethyl)-5-phenyl-1H-pyrido[4,3-b]indole, hydrochloride], the ED50 in assay [1] (mouse) turned out to be 1 mg/kg. The reducing locomotor activity entry in the assay on locomotor activity (in words) is reported as “potency in reducing locomotor activity”. In addition, in the assay with locomotor activity (mouse), the minimal effective dose is 0.1 mg/kg.

In the case of `CC(=O)Oc1ccccc1C(=O)O` [aspirin, reference compound], the median effective dose (ED50) in assay [1] (Mus musculus) was determined as 94 mg/kg.

`CN(C)CCCN1c2ccccc2Sc2ccc(Cl)cc21` [chlorpromazine, reference compound]: the minimal effective dose with locomotor activity (Mus musculus) lay in the range of 2 to 10 mg/kg. Moreover, the “Conf rat MED” value in assay [3] (rat, in vivo, po) is “I”. In assay [4] (Rattus norvegicus), the ED50 turned out to be 6 mg/kg.

For `COc1ccc2c3c1O[C@H]1[C@@H](O)C=C[C@H]4[C@@H](C2)N(C)CC[C@@]341` [codeine phosphate, reference compound], the ED50 in assay [1] (Mus musculus) worked out at 19 mg/kg.

With `c1ccc(N2c3ccccc3[C@@H]3CN(CC4CCC4)CC[C@H]32)cc1` [compound of Example 2, (+)-trans-2-(cyclobutylmethyl)-2,3,4,4a,5,9b-hexahydro-5-phenyl-1H-pyrido[4,3-b]indole], the minimal effective dose in the assay on blood pressure and with locomotor activity (Mus musculus) was 3 mg/kg throughout. Also, the “Conf rat MED” value in assay [3] (rat, in vivo, po) is reported as “I”. Also, the ED50 in assay [4] (Rattus norvegicus) was 4 mg/kg. Moreover, the “major tranquilizing” value in assay [4] (rat, in vivo) is “major tranquilizer (antipsychotic) activity”.

With `CN1C(=O)CN=C(c2ccccc2)c2cc(Cl)ccc21` [diazepam, reference compound], the minimal effective dose with locomotor activity (Mus musculus) fell in the range of 3 to 10 mg/kg; in assay [3] (Rattus norvegicus, po, read-out: Conf rat MED, with ataxia), 3 to 10 mg/kg; in assay [3] (Rattus norvegicus, po, read-out: Rat Conf.), 3 to 10 mg/kg. The “effect in conflict test” value in assay [6] is given as “apparent decreased fear in the test animals”.

In the case of `CCCC(C)(COC(N)=O)COC(N)=O` [meprobamate], the “effect in conflict test” value in assay [6] is given as “apparent decreased fear in the test animals”.
